The source made the active and inactive calls. How the calls were made is not given here.
Tested on: CCRIS mutagenicity, Ames/micronucleus/aberration tests
Test: CCRIS mutagenicity studies
[1] = Test System: AMES SALMONELLA TYPHIMURIUM, Strain/Indicator: TA98, Metabolic Activation: NONE, Method: PREINCUBATION
[2] = Test System: AMES SALMONELLA TYPHIMURIUM, Strain/Indicator: TA100, Metabolic Activation: NONE, Method: PREINCUBATION

N#C/C=C/C#N
mutagenic call (End Point: IN VITRO CHROMOSOMAL ABERRATIONS, Test System: CHO-LB CELLS, Metabolic Activation: NONE): active; positive
mutagenic call (End Point: IN VITRO CHROMOSOMAL ABERRATIONS, Test System: CHO-LB CELLS, Metabolic Activation: RAT, LIVER, S-9, AROCLOR 1254): inactive; negative
mutagenic call (Test System: AMES SALMONELLA TYPHIMURIUM, Strain/Indicator: TA97, Metabolic Activation: HAMSTER, LIVER, S-9, AROCLOR 1254 (10%), Method: PREINCUBATION): inactive; negative
mutagenic call (Test System: AMES SALMONELLA TYPHIMURIUM, Strain/Indicator: TA97, Metabolic Activation: HAMSTER, LIVER, S-9, AROCLOR 1254 (30%), Method: PREINCUBATION): inactive; negative
mutagenic call (Test System: AMES SALMONELLA TYPHIMURIUM, Strain/Indicator: TA97, Metabolic Activation: NONE, Method: PREINCUBATION): inactive; negative
mutagenic call (Test System: AMES SALMONELLA TYPHIMURIUM, Strain/Indicator: TA97, Metabolic Activation: RAT, LIVER, S-9, AROCLOR 1254 (10 OR 30%), Method: PREINCUBATION): inactive; negative
mutagenic call (Test System: AMES SALMONELLA TYPHIMURIUM, Strain/Indicator: TA98, Metabolic Activation: HAMSTER, LIVER, S-9, AROCLOR 1254 (10%), Method: PREINCUBATION): inactive; negative
mutagenic call (Test System: AMES SALMONELLA TYPHIMURIUM, Strain/Indicator: TA98, Metabolic Activation: HAMSTER, LIVER, S-9, AROCLOR 1254 (30%), Method: PREINCUBATION): inactive; negative
mutagenic call [1]: inactive; negative
mutagenic call (Test System: AMES SALMONELLA TYPHIMURIUM, Strain/Indicator: TA98, Metabolic Activation: RAT, LIVER, S-9, AROCLOR 1254 (10%), Method: PREINCUBATION): inactive; negative
mutagenic call (Test System: AMES SALMONELLA TYPHIMURIUM, Strain/Indicator: TA98, Metabolic Activation: RAT, LIVER, S-9, AROCLOR 1254 (30%), Method: PREINCUBATION): inactive; negative
mutagenic call (Test System: AMES SALMONELLA TYPHIMURIUM, Strain/Indicator: TA98, Metabolic Activation: RAT, LIVER, S-9, FUMARONITRILE (AUTOINDUCTION), Method: PREINCUBATION): inactive; negative
mutagenic call (Test System: AMES SALMONELLA TYPHIMURIUM, Strain/Indicator: TA98, Metabolic Activation: RAT, LIVER, S-9, PHENOBARBITAL, Method: PREINCUBATION): inactive; negative
mutagenic call (Test System: AMES SALMONELLA TYPHIMURIUM, Strain/Indicator: TA100, Metabolic Activation: HAMSTER, LIVER, S-9, AROCLOR 1254 (10%), Method: PREINCUBATION): inactive; negative
mutagenic call (Test System: AMES SALMONELLA TYPHIMURIUM, Strain/Indicator: TA100, Metabolic Activation: HAMSTER, LIVER, S-9, AROCLOR 1254 (30%), Method: PREINCUBATION): inactive; negative
mutagenic call [2]: inactive; negative
mutagenic call (Test System: AMES SALMONELLA TYPHIMURIUM, Strain/Indicator: TA100, Metabolic Activation: RAT, LIVER, S-9, AROCLOR 1254 (10%), Method: PREINCUBATION): inactive; negative
mutagenic call (Test System: AMES SALMONELLA TYPHIMURIUM, Strain/Indicator: TA100, Metabolic Activation: RAT, LIVER, S-9, AROCLOR 1254 (30%), Method: PREINCUBATION): inactive; negative
mutagenic call (Test System: AMES SALMONELLA TYPHIMURIUM, Strain/Indicator: TA100, Metabolic Activation: RAT, LIVER, S-9, FUMARONITRILE (AUTOINDUCTION), Method: PREINCUBATION): inactive; negative
mutagenic call (Test System: AMES SALMONELLA TYPHIMURIUM, Strain/Indicator: TA100, Metabolic Activation: RAT, LIVER, S-9, PHENOBARBITAL, Method: PREINCUBATION): inactive; negative
mutagenic call (Test System: AMES SALMONELLA TYPHIMURIUM, Strain/Indicator: TA1535, Metabolic Activation: HAMSTER, LIVER, S-9, AROCLOR 1254 (10%), Method: PREINCUBATION): inactive; negative
mutagenic call (Test System: AMES SALMONELLA TYPHIMURIUM, Strain/Indicator: TA1535, Metabolic Activation: HAMSTER, LIVER, S-9, AROCLOR 1254 (30%), Method: PREINCUBATION): inactive; negative
mutagenic call (Test System: AMES SALMONELLA TYPHIMURIUM, Strain/Indicator: TA1535, Metabolic Activation: NONE, Method: PREINCUBATION): inactive; negative
mutagenic call (Test System: AMES SALMONELLA TYPHIMURIUM, Strain/Indicator: TA1535, Metabolic Activation: RAT, LIVER, S-9, AROCLOR 1254 (10 OR 30%), Method: PREINCUBATION): inactive; negative

CC(=O)[C@@]1(C)O[C@]12C(=O)C=Cc1ccccc12
mutagenic call [2]: inactive; negative

OC/C=C/C=C/CO
mutagenic call (Test System: CHINESE HAMSTER V-79, Strain/Indicator: V-79 (HGPRT)/8-AZAGUANINE, Metabolic Activation: NONE): inactive; negative

Nc1ncnc2c1ncn2-c1cccc([N+](=O)[O-])c1
mutagenic call (Test System: AMES SALMONELLA TYPHIMURIUM, Strain/Indicator: TA98(1,8-DNP), Metabolic Activation: NONE, Method: PREINCUBATION): active; positive
mutagenic call (Test System: AMES SALMONELLA TYPHIMURIUM, Strain/Indicator: TA98(1,8-DNP), Metabolic Activation: RAT, LIVER, S-9, PCB, Method: PREINCUBATION): active; positive
mutagenic call (Test System: AMES SALMONELLA TYPHIMURIUM, Strain/Indicator: TA98(NR), Metabolic Activation: NONE, Method: PREINCUBATION): inactive; negative
mutagenic call (Test System: AMES SALMONELLA TYPHIMURIUM, Strain/Indicator: TA98(NR), Metabolic Activation: RAT, LIVER, S-9, PCB, Method: PREINCUBATION): inactive; negative
mutagenic call [1]: active; positive
mutagenic call (Test System: AMES SALMONELLA TYPHIMURIUM, Strain/Indicator: TA98, Metabolic Activation: RAT, LIVER, S-9, PCB, Method: PREINCUBATION): active; positive
mutagenic call (Test System: AMES SALMONELLA TYPHIMURIUM, Strain/Indicator: TA100(1,8-DNP), Metabolic Activation: NONE, Method: PREINCUBATION): active; positive
mutagenic call (Test System: AMES SALMONELLA TYPHIMURIUM, Strain/Indicator: TA100(1,8-DNP), Metabolic Activation: RAT, LIVER, S-9, PCB, Method: PREINCUBATION): active; positive
mutagenic call (Test System: AMES SALMONELLA TYPHIMURIUM, Strain/Indicator: TA100(NR), Metabolic Activation: NONE, Method: PREINCUBATION): inactive; negative
mutagenic call (Test System: AMES SALMONELLA TYPHIMURIUM, Strain/Indicator: TA100(NR), Metabolic Activation: RAT, LIVER, S-9, PCB, Method: PREINCUBATION): inactive; negative
mutagenic call [2]: active; positive
mutagenic call (Test System: AMES SALMONELLA TYPHIMURIUM, Strain/Indicator: TA100, Metabolic Activation: RAT, LIVER, S-9, PCB, Method: PREINCUBATION): active; positive
mutagenic call (Test System: AMES SALMONELLA TYPHIMURIUM, Strain/Indicator: YG1020, Metabolic Activation: NONE, Method: PREINCUBATION): active; positive
mutagenic call (Test System: AMES SALMONELLA TYPHIMURIUM, Strain/Indicator: YG1020, Metabolic Activation: RAT, LIVER, S-9, PCB, Method: PREINCUBATION): active; positive
mutagenic call (Test System: AMES SALMONELLA TYPHIMURIUM, Strain/Indicator: YG1021, Metabolic Activation: NONE, Method: PREINCUBATION): active; positive
mutagenic call (Test System: AMES SALMONELLA TYPHIMURIUM, Strain/Indicator: YG1021, Metabolic Activation: RAT, LIVER, S-9, PCB, Method: PREINCUBATION): active; positive
mutagenic call (Test System: AMES SALMONELLA TYPHIMURIUM, Strain/Indicator: YG1024, Metabolic Activation: NONE, Method: PREINCUBATION): active; positive
mutagenic call (Test System: AMES SALMONELLA TYPHIMURIUM, Strain/Indicator: YG1024, Metabolic Activation: RAT, LIVER, S-9, PCB, Method: PREINCUBATION): active; positive
mutagenic call (Test System: AMES SALMONELLA TYPHIMURIUM, Strain/Indicator: YG1025, Metabolic Activation: NONE, Method: PREINCUBATION): active; positive
mutagenic call (Test System: AMES SALMONELLA TYPHIMURIUM, Strain/Indicator: YG1025, Metabolic Activation: RAT, LIVER, S-9, PCB, Method: PREINCUBATION): active; positive
mutagenic call (Test System: AMES SALMONELLA TYPHIMURIUM, Strain/Indicator: YG1026, Metabolic Activation: NONE, Method: PREINCUBATION): active; positive
mutagenic call (Test System: AMES SALMONELLA TYPHIMURIUM, Strain/Indicator: YG1026, Metabolic Activation: RAT, LIVER, S-9, PCB, Method: PREINCUBATION): active; positive
mutagenic call (Test System: AMES SALMONELLA TYPHIMURIUM, Strain/Indicator: YG1029, Metabolic Activation: NONE, Method: PREINCUBATION): active; positive
mutagenic call (Test System: AMES SALMONELLA TYPHIMURIUM, Strain/Indicator: YG1029, Metabolic Activation: RAT, LIVER, S-9, PCB, Method: PREINCUBATION): active; positive

Source: PubChem BioAssay AID1259407 (Chemical Carcinogenesis Research Information System (CCRIS), 2018)
